Earlier results on 2 compounds are cited in patent US10610707B2, “Oral care product for sensitive enamel care” (Colgate-Palmolive Company, priority 2010, dated 2020).

For the data set the following is noted: pH below which the compound dissolves, consuming acid.

Regarding `[O]=[Zn]` [ZnO, Zinc oxide], the pH entry is “approximately 6.95”.

On to `O=C([O-])[O-].[Ca+2]` [calcium carbonate], for which the pH entry is recorded as “approximately 8.75”.
